# Measurements: US11661439B2, “Peptide hydrogels and use thereof” (The United States of America, as represented by the …, priority 2017, dated 2023)
# Non-standard residues stand in square brackets, D forms with d. Residues, ends and D or L forms follow the SMILES beside them.
# How the values were obtained:
# [1] = TEM analysis of peptide fibrils; type: physicochemical; conditions: 30 independent measurements
# Method: FIG. 4. Fibril visualization of β-hairpin peptide hydrogels. Transmission Electron Microscopy (TEM) images of peptide fibrils and frequency distributions determined from 30 independent measurements (scale bar=100 nm).
# Transmission electron microscopy (TEM) analysis. The hydrogel nanostructure of the peptide gels was observed using a Hitachi H-7650 transmission electron microscope at a voltage of 80 kV. A 1 wt % solution of peptide and an equal volume of buffer (50 mM HEPES containing 300 mM NaCl, pH 7.4) was mixed and incubated overnight at 37° C. to allow for gelation. The next day, samples for TEM analysis were prepared by suspending 5 μL of the resulting peptide gel in 195 μL of water to yield a 40-fold dilution. Small amounts (5 μL) of each diluted gel solution were applied to separate carbon coated copper grids. After 1 min, the grid was washed with water. Then, a 1 w/v % uranyl acetate aqueous solution was placed on each grid for negative staining. Excess staining solution was blotted away, left to air dry, and the grids were imaged immediately.
# [2] = tested on: human dermal fibroblasts (HDFs); assay: 2D cell culture of HDFs on gel surfaces; type: cell-based; conditions: for cell adhesion of HDFs on gel surface: Essential 8 Medium or serum-free DMEM
# Method: 2D cell culture on peptide gels. Peptides were initially dissolved in water at 1 wt % on ice and mixed with an equal volume of ice-cold 2×HEPES buffer (50 mM HEPES, 300 mM NaCl, pH 7.4). The peptide solution (50 μL per well) was transferred to a non-tissue culture treated 96-well plates and incubated at 37° C. to initiate gelation. After 1 hour, HDFs (2×10^4 cells per 200 μL, per well) in serum-free DMEM, 10% FBS supplemented DMEM, or Essential 8 Medium (Thermo Fisher Scientific) were seeded on the peptide gels and cultured for 4 days. Bovine type I collagen gels (0.3 wt %, 50 μL per well) were prepared in 96-well plates following manufacturer's instructions.
# (§1) Cell viability assay. Cell viability was evaluated by live and dead cell staining after 2D and 3D cell culture. Serum-free DMEM containing 1 μM calcein-AM and 2 μM ethidium homodimer-1 was added to the cells (200 μL per well for 2D culture and 500 μL each to the top and bottom of the gels for 3D culture). After incubation at 37° C. for 30 min, live and dead cells were visualized using EVOS FL Auto Cell Imaging System (Thermo Fisher Scientific). For the pseudo-colored composite image of varying heights of encapsulated cells, images of the live-stained cells were captured every 5 μm of height. Then Z-stack images for each 100 μm were flattened using the EVOS software, and the flattened images were pseudo-colored and merged using ImageJ.
# Cell proliferation assay. A cell proliferation assay was performed using Cell Counting Kit-8 (CCK-8, Dojindo Molecular Technologies) for 2D and 3D cell culture. Serum-free DMEM containing 10% CCK-8 was added to the gels (200 μL per well for 2D culture; 500 μL to the top of the gels for 3D culture) and incubated for 2 hours at 37° C. Subsequently, media were transferred to 96-well plates (150 μL per well) and their absorbance measured at 450 nm relative to control viabilities from day 0 for 2D cell culture and day 1 for 3D cell culture. Experiments were performed in triplicate.
# Cytoskeleton staining. For 2D cell culture, the peptide and collagen gels (70 μL) were prepared as described above on the glass bottom of 35 mm dishes (7 mm glass diameter, MatTek). HDFs in Essential 8 Medium (1.5×10^5 cells per 3 mL) were added to the dishes and incubated at 37° C. for 24 hours. Cells were fixed and permeabilized with 4% paraformaldehyde and 0.1% Triton X-100 in PBS for 15 min, and then blocked with 1% BSA in PBS. Cells were incubated with anti-vinculin antibody (hVIN-1, Sigma) for 1 hour at room temperature. Then, a goat anti-mouse IgG (H+L) cross-adsorbed secondary antibody, Rhodamine Red-X (2 μg mL^−1, Thermo Fisher Scientific), Alexa Fluor 488 phalloidin (5 units mL^−1, Thermo Fisher Scientific), and Hoechst 33342 (5 μg mL^−1, Invitrogen) in PBS were added to the dishes and incubated for 1 hour at room temperature. After washing, cells were visualized using an EVOS FL Auto Cell Imaging System.
# [3] = tested on: human dermal fibroblasts (HDFs); assay: 3D cell encapsulation culture of HDFs in gels; type: cell-based
# Method: 3D cell culture in peptide gels. Peptides were initially dissolved in 285 mM sucrose at 1 wt % on ice and mixed with an equal volume of cell suspension in serum-free HEPES-supplemented DMEM (2×10^6 cells mL^−1). The cell-peptide suspension (5×10^4 cells per 50 μL per insert) was transferred to a Falcon cell culture insert (for 24-well plates, 8 μm pore size, Corning) and incubated at 37° C. for 30 min for gelation. These inserts were previously coated with the empty hydrogel (30 μL per insert) to avoid cell adhesion to the bottom surface of the inserts. After gelation of cell-peptide solution, 500 μL of Essential 8 Medium were added to the top and bottom of the gels. Type I collagen gels were prepared following manufacturer's instructions. Briefly, a 0.4 wt % collagen solution was prepared on ice and mixed with cell suspension in serum-free DMEM (4×10^6 cells mL^−1) at a ratio of 3:1 (0.3 wt % collagen, 1×10^6 cells mL^−1).
# as §1
# Cell proliferation assay. A cell proliferation assay was performed using Cell Counting Kit-8 (CCK-8, Dojindo Molecular Technologies) for 2D and 3D cell culture. […] Subsequently, media were transferred to 96-well plates (150 μL per well) and their absorbance measured at 450 nm relative to control viabilities from day 0 for 2D cell culture and day 1 for 3D cell culture. […]
smiles,measurement,setting,value
CC(=O)N[C@H](C(=O)N[C@@H](CCC(=O)O)C(=O)N[C@H](C(=O)N[C@@H](CO)C(=O)N[C@H](C(=O)N[C@@H](CO)C(=O)N[C@H](C(=O)N[C@@H](CCC(=O)O)C(=O)N[C@H](C(=O)N1CCC[C@@H]1C(=O)N1CCC[C@H]1C(=O)N[C@H](C(=O)N[C@@H](CCC(=O)O)C(=O)N[C@H](C(=O)N[C@@H](CO)C(=O)N[C@H](C(=O)N[C@@H](CCC(=O)O)C(=O)N[C@H](C(=O)N[C@@H](CCC(=O)O)C(=O)N[C@H](C(=O)NCC(=O)NCC(=O)NCC(=O)NCC(=O)N[C@@H](CCCNC(=N)N)C(=O)NCC(=O)N[C@@H](CC(=O)O)C(=O)N[C@H](C(N)=O)C(C)C)C(C)C)C(C)C)C(C)C)C(C)C)[C@@H](C)O)C(C)C)C(C)C)C(C)C)C(C)C)C(C)C [AcVES3-RGDV] (Ac-VEVSVSVEV[dP]PTEVSVEVEVGGGGRGDV-NH2),average fibril width,[1],4.0±0.4 nm
same,"cell proliferation of HDFs, 2D culture","[2]; Essential 8 Medium, up to day 4",proliferated to a similar degree as cells on collagen gels
same,cytoskeleton organization and focal adhesions,"[2]; day 1, Essential 8 Medium",promoted organization of actin stress fibers and focal contacts
same,cell adhesion of HDFs on gel surface,[2]; day 1,strongly attached and spread
same,cell adhesion of HDFs on gel surface,[2]; day 4,remained adherent and viable
same,cell proliferation rate relative to the collagen gel,"[3]; 3D culture, Essential 8 Medium",2-3 fold
same,"cell proliferation of encapsulated HDFs, 3D culture","[3]; Essential 8 Medium, one week",proliferated well with minimal cell death
same,distribution of encapsulated cells in the gel,"[3]; day 4, heights 0-500 μm",homogenously distributed throughout the gel matrix
